SMILES strings stand for the structures. Read-outs that look alike come from different tables or passages of the source. Positions of bridges follow the written chain, without caps; N, C: chain ends. Residues, ends and D or L forms follow the SMILES beside them.

This assay concerns blood stages of P. falciparum. Type of assay: cell-based, Plasmodium falciparum. To be noted: 48 h, starting parasitemia 0.5%, haematocrit 1%, SYBR Green I flow cytometry. The protocol: The growth inhibition assay was described in detail in [Fréville et al. (2013)]. Briefly, assays were carried out in 96-well plates with a starting parasitemia of 0.5% at a haematocrit of 1% using SYBR Green I ([Kelly et al., 2009]). The peptides were added to the culture at different concentrations ranging from 6.25 μM to 50 μM (final concentrations) in a volume of 250 μl of RPMI-AlbuMAX (0.5%) and incubated for an additional 48 h to allow all stages to complete one cycle. Cultures were stained for 30 min in the dark with SYBR Green I 1X (Invitrogen) diluted in 20 mM Tris pH8.8, 138 mM NaCl, and fixed with 1% paraformaldehyde. Fixed parasited red blood cells (RBC) were stored at 4°C in the dark until flow cytometry analysis. Parasite growth was assessed by flow cytometry on a BD FACSCantoII (BD Biosciences). Cell pairs were excluded from the analysis using a forward scatter (FSC)-width versus FSC-area dot plot. […] Fluorescence analysis (Green fluorescence) was performed using BD FACSDiva software (version 6.1.3, BD Biosciences) on a total of 200,000 acquired events. Fluorescence was observed as described by [Izumiyama et al. (2009)] on a two-parameter dot plot (Green fluoresecence-FSC). Fluorescence of non-infected RBC was adjusted to plot between […]. Results are expressed as the percentage of growth inhibition. […]

Regarding `CC[C@H](C)[C@H](NC(=O)[C@@H]1CSSC[C@@H]2NC(=O)[C@H](Cc3c[nH]cn3)NC(=O)[C@H](CCCNC(=N)N)NC(=O)[C@H](CC(=O)O)NC(=O)[C@@H]3CSSC[C@H](NC(=O)[C@H]([C@@H](C)O)NC(=O)[C@H](CC(C)C)NC(=O)[C@H](CCCCN)NC(=O)[C@H](Cc4c[nH]c5ccccc45)NC(=O)[C@H](CCCNC(=N)N)NC(=O)CNC(=O)CNC(=O)[C@H](CSSC[C@H](NC(=O)[C@H](Cc4ccccc4)NC(=O)[C@H](Cc4ccccc4)NC(=O)CN)C(=O)N4CCC[C@H]4C(=O)N[C@@H](Cc4ccc(O)cc4)C(=O)N[C@@H](CC(N)=O)C(=O)NCC(=O)N[C@@H](Cc4ccc(O)cc4)C(=O)N3)NC(=O)[C@H](Cc3ccc(O)cc3)NC(=O)CNC(=O)CNC(=O)[C@H](CCCNC(=N)N)NC(=O)[C@H](CCCNC(=N)N)NC(=O)[C@H](CCCNC(=N)N)NC(=O)[C@H](CC(C)C)NC(=O)[C@H](CCCCN)NC(=O)[C@H](CCCCN)NC(=O)[C@H](CCCNC(=N)N)NC2=O)C(=O)N[C@@H]([C@@H](C)CC)C(=O)N1)C(=O)N[C@@H](CCSC)C(=O)N[C@@H](CC(N)=O)C(=O)O` [DefMT5] (H-GFFCPYNGYCDRHCRKKLRRRGGYCGGRWKLTCICIMN-OH; disulfide 4-25, 10-33, 14-35; N-terminus assumed), the “P. falciparum growth inhibition” value runs as follows: (6.25 μM peptide) 20%; (50 μM peptide (highest concentration tested)) ~100%.

Source of the values: PMC5075766, “Antiplasmodial Activity Is an Ancient and Conserved Feature of Tick Defensins” (Frontiers in Microbiology, 2016).
